Data reported in ChEMBL document CHEMBL1201862, “PubChem BioAssay data set” (2004).
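In this assay, cells in 96-well plates receive the compound at five concentrations for 48 hours. Endpoints are linearly interpolated between the surrounding concentrations. GI50 marks 50% less growth.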 Active and inactive are the calls of the source. Rule as the data show it: active = GI50 up to about 1.1 µM and inactive = higher.

How the values were obtained:
Experiment in all cases: growth of human tumour cells (NCI), 48 h
KM12 = test system: KM12
U-251 = test system: U-251
HT-29 = test system: HT-29
IGROV-1 = test system: IGROV-1
SN12C = test system: SN12C
HCC 2998 = test system: HCC 2998
SK-MEL-2 = test system: SK-MEL-2
SF-539 = test system: SF-539
HL-60 = test system: HL-60
ACHN = test system: ACHN
A549 = test system: A549
OVCAR-8 = test system: OVCAR-8
MOLT-4 = test system: MOLT-4
NCI-H23 = test system: NCI-H23
SR = test system: SR

Measured: GI50

C=CCN(N=O)C(=O)ON1C(=O)CCC1=O
inactive: KM12 > 100 µM | U-251 17.7 µM | HT-29 > 100 µM | IGROV-1 > 100 µM | SN12C > 100 µM | HCC 2998 > 100 µM | SK-MEL-2 > 100 µM | SF-539 > 100 µM | HL-60 > 100 µM | ACHN > 100 µM | A549 > 100 µM | OVCAR-8 > 100 µM | MOLT-4 > 100 µM | NCI-H23 > 100 µM

CN(C)c1ccc(/C=c2\sc3nc4ccccc4n3c2=O)cc1
inactive: KM12 > 100 µM | U-251 > 100 µM | HT-29 > 100 µM | IGROV-1 > 100 µM | SN12C > 100 µM | HCC 2998 > 100 µM | SK-MEL-2 > 100 µM | SF-539 > 100 µM | HL-60 > 100 µM | ACHN > 100 µM | A549 > 100 µM | OVCAR-8 > 100 µM | NCI-H23 > 100 µM

O=C1c2ccccc2C2(O)Nc3c(ccc4ccccc34)C12O (stereo not drawn)
inactive: KM12 87.1 µM | U-251 > 100 µM | HT-29 > 100 µM | IGROV-1 > 100 µM | SN12C > 100 µM | HCC 2998 > 100 µM | SK-MEL-2 > 100 µM | SF-539 > 100 µM | HL-60 97.1 µM | ACHN > 100 µM | A549 > 100 µM | OVCAR-8 > 100 µM | MOLT-4 39 µM | NCI-H23 > 100 µM

c1ccc(/N=C2\c3ccccc3C3=NCCCN32)cc1
inactive: KM12 38.7 µM | U-251 > 100 µM | HT-29 31.1 µM | IGROV-1 59.8 µM | SN12C > 100 µM | HCC 2998 49.7 µM | SK-MEL-2 86.5 µM | SF-539 49.3 µM | ACHN 29.4 µM | A549 42.3 µM | OVCAR-8 > 100 µM | MOLT-4 39.4 µM | NCI-H23 41.5 µM

CCC(C)c1cccc(C)c1NC(=O)C(=O)Cc1nc2ccccc2s1 (stereo not drawn)
inactive: KM12 > 100 µM | U-251 > 100 µM | HT-29 > 100 µM | IGROV-1 > 100 µM | SN12C > 100 µM | HCC 2998 > 100 µM | SK-MEL-2 > 100 µM | SF-539 > 100 µM | HL-60 > 100 µM | ACHN > 100 µM | A549 > 100 µM | OVCAR-8 > 100 µM | MOLT-4 > 100 µM | NCI-H23 > 100 µM

Cc1cc(C)nc(NS(=O)(=O)c2ccc(Nc3c4ccc(Cl)cc4nc4c(C(=O)Nc5ccc(S(N)(=O)=O)cc5)cccc34)cc2)n1
inactive: KM12 14.2 µM | SR 16.6 µM | U-251 14.4 µM | HT-29 24 µM | SN12C 15 µM | HCC 2998 16.6 µM | SF-539 17.2 µM | ACHN 32.1 µM | OVCAR-8 16.9 µM | MOLT-4 9.77 µM | NCI-H23 15.1 µM

CCCCCCCCCCCCCCCCOC(=O)C(C(=O)OCCCCCCCCCCCCCCCC)[N+](C)(C)CCOC(C)=O
inactive: KM12 13.7 µM | U-251 12 µM | HT-29 11.1 µM | IGROV-1 3.92 µM | SN12C 18.4 µM | HCC 2998 11.4 µM | SK-MEL-2 20.1 µM | HL-60 2.11 µM | ACHN 19.2 µM | A549 20.5 µM | OVCAR-8 17.7 µM | NCI-H23 14.6 µM

O=C(NCCOCCO)c1ccc(O)cc1
inactive: U-251 > 100 µM | IGROV-1 > 100 µM | SN12C > 100 µM | SF-539 > 100 µM | HL-60 > 100 µM | ACHN > 100 µM | A549 > 100 µM | OVCAR-8 > 100 µM | MOLT-4 > 100 µM | NCI-H23 > 100 µM

COCCCCCC(=O)CP(=O)(OC)OC
inactive: KM12 > 100 µM | SR 52 µM | U-251 > 100 µM | HT-29 > 100 µM | IGROV-1 > 100 µM | SN12C > 100 µM | HCC 2998 > 100 µM | SK-MEL-2 > 100 µM | SF-539 > 100 µM | HL-60 86.3 µM | ACHN > 100 µM | A549 > 100 µM | OVCAR-8 > 100 µM | MOLT-4 > 100 µM | NCI-H23 > 100 µM

Nc1ccccc1N
inactive: KM12 > 100 µM | SR 32.9 µM | U-251 > 100 µM | HT-29 > 100 µM | IGROV-1 > 100 µM | SN12C > 100 µM | HCC 2998 > 100 µM | SK-MEL-2 > 100 µM | SF-539 > 100 µM | HL-60 25.6 µM | ACHN > 100 µM | A549 > 100 µM | OVCAR-8 > 100 µM | MOLT-4 36.7 µM | NCI-H23 > 100 µM

CCn1cc(/C=C/C(C)c2cn(CC)c(=O)[nH]c2=O)c(=O)[nH]c1=O (stereo not drawn)
inactive: KM12 > 100 µM | U-251 > 100 µM | HT-29 > 100 µM | IGROV-1 > 100 µM | SN12C > 100 µM | HCC 2998 > 100 µM | SK-MEL-2 > 100 µM | SF-539 > 100 µM | HL-60 > 100 µM | ACHN > 100 µM | A549 > 100 µM | OVCAR-8 > 100 µM | MOLT-4 > 100 µM | NCI-H23 > 100 µM

CCN(CC)CC(C(C)=O)C(c1ccccc1)c1c(O)c2ccccc2oc1=O (stereo not drawn)
inactive: KM12 > 100 µM | SR > 100 µM | U-251 > 100 µM | HT-29 > 100 µM | IGROV-1 > 100 µM | SN12C > 100 µM | HCC 2998 > 100 µM | SK-MEL-2 > 100 µM | SF-539 > 100 µM | HL-60 > 100 µM | ACHN > 100 µM | A549 > 100 µM | OVCAR-8 > 100 µM | MOLT-4 > 100 µM

CCSC1(SCC)CC(Cc2ccc(OC)cc2)N(/C=N/C(C)(C)C)C1 (stereo not drawn)
inactive: KM12 25.9 µM | SR 10.6 µM | U-251 19.1 µM | HT-29 10.7 µM | IGROV-1 37.8 µM | SN12C 25 µM | HCC 2998 17 µM | SK-MEL-2 33.1 µM | SF-539 54.5 µM | HL-60 10.6 µM | ACHN 32.5 µM | A549 36.9 µM | OVCAR-8 28.2 µM | MOLT-4 14.7 µM | NCI-H23 18.7 µM

COc1ccc(C2CCc3cc4c(cc3/C2=N/OC(C)=O)OCO4)cc1OC (stereo not drawn)
inactive: KM12 20.8 µM | U-251 23.8 µM | HT-29 36.2 µM | IGROV-1 24.3 µM | SN12C 26.9 µM | SK-MEL-2 27.8 µM | SF-539 17.9 µM | A549 18.3 µM | OVCAR-8 34.4 µM | MOLT-4 15.8 µM | NCI-H23 10.4 µM

O=C1OC(/C=C/c2ccccc2)C(=O)C1=O (stereo not drawn)
inactive: KM12 > 100 µM | U-251 > 100 µM | HT-29 > 100 µM | IGROV-1 > 100 µM | HCC 2998 > 100 µM | SK-MEL-2 > 100 µM | SF-539 > 100 µM | HL-60 > 100 µM | ACHN > 100 µM | A549 > 100 µM | MOLT-4 > 100 µM | NCI-H23 > 100 µM

Cn1nc(-c2ccccc2)c2c(/C=C/c3ccc(F)cc3)onc2c1=O
inactive: U-251 64 µM | HT-29 29.3 µM | IGROV-1 > 100 µM | SN12C 88.1 µM | SF-539 61.9 µM | HL-60 5.92 µM | ACHN 24.1 µM | A549 13.6 µM | OVCAR-8 38.1 µM | MOLT-4 > 100 µM | NCI-H23 19 µM

COC(=O)[C@@H]1C(=O)O[C@@H](c2ccc3c(c2)OCO3)[C@@H]1C(=O)OC.COC(=O)[C@H]1C(=O)O[C@@H](c2ccc3c(c2)OCO3)[C@@H]1C(=O)OC
inactive: KM12 > 100 µM | SR > 100 µM | U-251 > 100 µM | HT-29 > 100 µM | IGROV-1 > 100 µM | SN12C > 100 µM | HCC 2998 > 100 µM | SF-539 > 100 µM | HL-60 > 100 µM | ACHN > 100 µM | A549 > 100 µM | OVCAR-8 > 100 µM | MOLT-4 > 100 µM | NCI-H23 > 100 µM

NC(=O)Nc1c([N+](=O)[O-])cc(C(F)(F)F)cc1[N+](=O)[O-]
inactive: KM12 57.8 µM | SR > 100 µM | U-251 > 100 µM | HT-29 33.7 µM | IGROV-1 > 100 µM | SN12C > 100 µM | SK-MEL-2 > 100 µM | SF-539 > 100 µM | HL-60 33.7 µM | ACHN > 100 µM | A549 > 100 µM | OVCAR-8 57.5 µM | MOLT-4 > 100 µM | NCI-H23 43.8 µM

CC(C)=CCC/C(C)=C/CC/C(C)=C/CC/C=C(\C)CC/C=C(\C)CCC1SC1(C)C (stereo not drawn)
inactive: KM12 > 100 µM | U-251 > 100 µM | HT-29 > 100 µM | IGROV-1 > 100 µM | SN12C > 100 µM | HCC 2998 > 100 µM | SK-MEL-2 > 100 µM | SF-539 > 100 µM | HL-60 > 100 µM | ACHN > 100 µM | A549 > 100 µM | OVCAR-8 > 100 µM | MOLT-4 > 100 µM | NCI-H23 > 100 µM

Cc1cc(Cl)cc2c1NC(=O)C2=O.O=C(c1ccccc1)C(F)(F)F
inactive: KM12 61 µM | U-251 85.9 µM | HT-29 78 µM | IGROV-1 > 100 µM | SN12C 54 µM | HCC 2998 > 100 µM | SK-MEL-2 36 µM | SF-539 47.9 µM | ACHN 75.7 µM | A549 52.2 µM | OVCAR-8 55.5 µM | MOLT-4 20.1 µM | NCI-H23 > 100 µM
